This is an account of results in paper PMC6213020, “Identification of a Novel PPAR-γ Agonist through a Scaffold Tuning Approach” (International Journal of Molecular Sciences, 2018).

In one data set the target is T1, PPAR-α (Homo sapiens, UniProt Q07869).
T1 construct: host or cells: CV-1
T1 sequence (Q07869 1-468): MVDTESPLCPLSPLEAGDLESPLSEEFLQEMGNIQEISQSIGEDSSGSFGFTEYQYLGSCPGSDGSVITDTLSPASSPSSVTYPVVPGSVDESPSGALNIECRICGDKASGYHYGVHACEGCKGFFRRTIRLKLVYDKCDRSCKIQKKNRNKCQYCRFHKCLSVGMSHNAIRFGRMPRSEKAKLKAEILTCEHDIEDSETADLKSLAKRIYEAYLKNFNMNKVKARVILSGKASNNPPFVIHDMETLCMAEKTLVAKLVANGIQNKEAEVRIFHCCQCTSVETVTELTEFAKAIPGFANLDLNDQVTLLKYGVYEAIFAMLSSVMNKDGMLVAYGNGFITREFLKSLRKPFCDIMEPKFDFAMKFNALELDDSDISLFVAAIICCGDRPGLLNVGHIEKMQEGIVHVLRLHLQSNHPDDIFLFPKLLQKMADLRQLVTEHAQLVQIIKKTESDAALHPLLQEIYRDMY
Kind of data set: cell-based PPAR transactivation (luciferase) assay, PPAR-α. Conditions: 24 h; compounds 10 µM; relative to maximum activation with GW7647 (10 µM); PPAR-Luc in CV-1 cells; read-out: % max PPAR-α. Here is the method:
(§1) The PPAR activities of the synthesized dichloroanilide-linked indole analogs were assessed using a standard cell-based transactivation assay in CV-1 cells. GW7647 [42], pioglitazone, and GW0742 [43] were used as positive controls for PPAR-α, -γ, and -δ, respectively. These three positive controls presented the maximum activation for each PPAR subtype. The activity of the compounds was presented as the activation percentage (%) relative to the maximum values of the positive controls at the indicated concentrations.
(§2) Transient transfection and luciferase assay was carried out. CV-1 cells were seeded in 48-well plates at a density of 1.5 × 10^5 cells/well in Dulbecco’s modified Eagle’s medium (DMEM) with containing 10% fetal bovine serum (FBS). The cells were transiently transfected with plasmid mixtures containing PPAR-α/γ expression vector and tk-PPRE-luciferase (Luc) vector for 6 h and then treated with the samples for 24 h. HEK293t cells were seeded in a 60-mm dish at a density of 1.5 × 10^6 cells/dish. After transfection with the plasmid mixtures containing PPAR-δ expression vector and Luc vector for 6 h, the cells were transferred to a 96-well plate and treated with the samples. To normalize the transfection efficiency, a β-galactosidase plasmid was cotransfected. The luciferase activity in the cell lysates was measured using a luciferase assay system (Promega Corp., Madison, WI, USA), and the β-galactosidase activity was determined by measuring the absorbance at 410 nm using an ELISA plate reader. The data were expressed as the relative luciferase activity divided by the β-galactosidase activity. All constructs were kindly gifted by Dr. Ronald M. Evans at The Salk Institute (La Jolla, CA, USA).

In the next data set the target is T2, PPAR-δ (Homo sapiens, UniProt Q03181).
T2 construct: host or cells: HEK293t
T2 sequence (Q03181 1-441): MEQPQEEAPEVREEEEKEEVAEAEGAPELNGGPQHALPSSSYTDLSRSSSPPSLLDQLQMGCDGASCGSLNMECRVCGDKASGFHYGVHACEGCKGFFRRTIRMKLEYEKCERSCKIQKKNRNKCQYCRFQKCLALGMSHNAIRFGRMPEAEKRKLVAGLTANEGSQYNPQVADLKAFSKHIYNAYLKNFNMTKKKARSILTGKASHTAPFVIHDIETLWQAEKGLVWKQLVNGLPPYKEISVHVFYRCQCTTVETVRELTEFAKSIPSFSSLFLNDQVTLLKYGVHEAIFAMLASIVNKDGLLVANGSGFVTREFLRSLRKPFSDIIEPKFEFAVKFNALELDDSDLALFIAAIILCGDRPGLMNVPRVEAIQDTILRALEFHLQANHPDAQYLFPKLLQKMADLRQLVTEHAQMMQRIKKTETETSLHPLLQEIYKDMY
Kind of data set: cell-based PPAR transactivation (luciferase) assay, PPAR-δ. The conditions noted are these: compounds 10 µM; relative to maximum activation with GW0742 (10 μM); PPAR-Luc in HEK293t cells; read-out: % max PPAR-δ. The procedure:
as §1, §2

A further data set addresses T3, PPAR-γ (Homo sapiens, UniProt P37231).
T3 construct: host or cells: CV-1
T3 sequence (P37231 1-505): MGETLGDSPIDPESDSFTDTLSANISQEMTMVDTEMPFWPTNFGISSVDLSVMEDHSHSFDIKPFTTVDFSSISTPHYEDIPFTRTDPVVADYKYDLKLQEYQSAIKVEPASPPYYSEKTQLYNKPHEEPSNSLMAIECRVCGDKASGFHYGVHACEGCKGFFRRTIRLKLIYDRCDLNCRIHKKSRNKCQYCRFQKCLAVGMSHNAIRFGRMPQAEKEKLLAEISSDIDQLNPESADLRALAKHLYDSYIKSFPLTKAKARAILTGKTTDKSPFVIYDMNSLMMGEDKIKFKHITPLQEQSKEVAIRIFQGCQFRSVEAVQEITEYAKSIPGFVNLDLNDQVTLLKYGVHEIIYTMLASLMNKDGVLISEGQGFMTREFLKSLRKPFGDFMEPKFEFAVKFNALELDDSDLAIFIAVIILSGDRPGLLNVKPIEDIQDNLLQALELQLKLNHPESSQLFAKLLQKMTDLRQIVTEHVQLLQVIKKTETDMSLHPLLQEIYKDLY
The data set is described as follows: cell-based PPAR transactivation (luciferase) assay, PPAR-γ. The conditions noted are these: for activation at 10 µM: 24 h, compounds 10 µM, relative to maximum activation with pioglitazone (10 µM), PPAR-Luc in CV-1 cells, read-out: % max PPAR-γ; for agonistic activity to PPARs, in words: transactivation assay, all PPAR subtypes. The procedure:
as §1, §2

Another data set concerns db/db mice. The arrangement: method as in PMID 21482466, PMID 23265886, PMID 25982078. Conditions: cited from earlier work.

As to `O=C(O)Cc1c[nH]c2cc(OCC(=O)Nc3ccc(Cl)cc3Cl)ccc12` [Compound 6, 2-(6-(2-((2,4-Dichlorophenyl)amino)-2-oxoethoxy)-1H-indol-3-yl)acetic acid], the activation at 10 µM came out at 1.12 ± 0.24% at PPAR-α, 8.27 ± 0.33% at PPAR-δ and 8.66 ± 0.23% on PPAR-γ. At PPAR-γ, the “agonistic activity to PPARs, in words” value is reported as “minimum agonistic activities”.
In the case of `CC(C)=CCc1cn(Cc2ccccc2C(=O)O)c2ccc(OCC(=O)Nc3ccc(Cl)cc3Cl)cc12` [Compound 20, 2-((5-(2-((2,4-Dichlorophenyl)amino)-2-oxoethoxy)-3-(3-methylbut-2-en-1-yl)-1H-indol-1-yl)methyl)benzoic acid], the activation at 10 µM on PPAR-α is -5.93 ± 0.14%; at PPAR-δ, 8.92 ± 0.48%; at PPAR-γ, 5.1 ± 0.2%.
As to `O=C(COc1ccc2c(Cc3ccccc3)cn(Cc3ccccc3C(=O)O)c2c1)Nc1ccc(Cl)cc1Cl` [Compound 19, 2-((3-Benzyl-6-(2-((2,4-dichlorophenyl)amino)-2-oxoethoxy)-1H-indol-1-yl)methyl)benzoic acid], the activation at 10 µM turned out to be 7.25 ± 0.12% at PPAR-α, 19.4 ± 0.54% at PPAR-δ and 19.03 ± 0.13% on PPAR-γ.
For `O=C(O)Cc1cn(Cc2ccccc2)c2ccc(OCC(=O)Nc3ccc(Cl)cc3Cl)cc12` [Compound 7, 2-(1-Benzyl-5-(2-((2,4-dichlorophenyl)amino)-2-oxoethoxy)-1H-indol-3-yl)acetic acid], in that order: 21.41 ± 0.21%, 44.4 ± 0.77% and 31.2 ± 0.38%.
On the same counts, the results for `CC(C)=CCc1cn(Cc2ccccc2C(=O)O)c2cc(OCC(=O)Nc3ccc(Cl)cc3Cl)ccc12` [Compound 21, 2-((6-(2-((2,4-Dichlorophenyl)amino)-2-oxoethoxy)-3-(3-methylbut-2-en-1-yl)-1H-indol-1-yl)methyl)benzoic acid] are -2.3 ± 0.19%, 22.2 ± 0.59% and 9.55 ± 0.32%.
On to `O=C(COc1ccc2c(ccn2Cc2cccc(C(=O)O)c2)c1)Nc1ccc(Cl)cc1Cl` [Compound 14, 3-((5-(2-((2,4-Dichlorophenyl)amino)-2-oxoethoxy)-1H-indol-1-yl)methyl)benzoic acid], for which the activation at 10 µM at PPAR-α was 10.33 ± 0.07%; at PPAR-δ, 23.9 ± 0.51%; at PPAR-γ, 42 ± 0.52%.
For the compound `O=C(O)Cc1cn(Cc2ccccc2)c2ccc(OCCCOc3cccc(OCc4ccc(Cl)cc4)c3)cc12` [Compound 2], in the data set on db/db mice, the “accumulation of lipids and size of the adipocytes” value is reported as “reduced”; the blood glucose level result was “lowered”; the “glycated hemoglobin (HbA1c) level” value was “lowered”; the insulin level result is recorded as “lowered”. Besides, the weight gain entry in the data set with db/db mice is “without causing weight gain”.
For `O=C(O)Cc1cn(Cc2ccccc2)c2cc(OCC(=O)Nc3ccc(Cl)cc3Cl)ccc12` [Compound 8, 2-(1-Benzyl-6-(2-((2,4-dichlorophenyl)amino)-2-oxoethoxy)-1H-indol-3-yl)acetic acid], the activation at 10 µM on PPAR-α was found to be 31.68 ± 0.22%; on PPAR-δ it was 65.4 ± 0.7%; at PPAR-γ it was 71.9 ± 0.91%.
As for `O=C(COc1ccc2ccn(Cc3ccc(C(=O)O)cc3)c2c1)Nc1ccc(Cl)cc1Cl` [Compound 17, 4-((6-(2-((2,4-Dichlorophenyl)amino)-2-oxoethoxy)-1H-indol-1-yl)methyl)benzoic acid], the activation at 10 µM at PPAR-α is -14.4 ± 0.16%; at PPAR-δ it was 4.87 ± 0.24%; on PPAR-γ, -0.84 ± 0.16%.
On to `O=C(O)Cc1c[nH]c2ccc(OCC(=O)Nc3ccc(Cl)cc3Cl)cc12` [Compound 5, 2-(5-(2-((2,4-Dichlorophenyl)amino)-2-oxoethoxy)-1H-indol-3-yl)acetic acid], for which the activation at 10 µM on PPAR-α is -38.13 ± 0.06%; at PPAR-δ, 11.8 ± 0.35%; at PPAR-γ, 5.6 ± 0.14%. For the same compound, the “agonistic activity to PPARs, in words” value at PPAR-γ was “minimum agonistic activities”.
As to `O=C(COc1ccc2c(ccn2Cc2ccc(C(=O)O)cc2)c1)Nc1ccc(Cl)cc1Cl` [Compound 16, 4-((5-(2-((2,4-Dichlorophenyl)amino)-2-oxoethoxy)-1H-indol-1-yl)methyl)benzoic acid], the activation at 10 µM on PPAR-α was -19.98 ± 0.08%; at PPAR-δ, -1.07 ± 0.14%; on PPAR-γ, 0.29 ± 0.06%.
